From patent US20240417359A1, “PRECURSORS OF PHENOLIC FRAGRANT COMPOUNDS” (GIVAUDAN SA, priority 2021, published 2024)
Entries after “also recorded” stand apart in the source; their conditions may differ.

Columns and labels:
[1] = Washtest with liquid detergent and sensory evaluation of fabric by expert panel; conditions: for odour released on dry fabric: comparison of double bond position Δ-2, Δ-3, Δ-4
Description: The wet and line-dried fabric (1 and 4 days) was assessed by a panel of 4-6 experts with regard to odour intensity and quality. The odour intensity was recorded on an intensity scale of 0 (odourless) to 5 (extremely strong).
The odour intensity was recorded on an intensity scale of 0 (odorless) to 5 (extremely strong).
Heavy duty liquid detergent samples were prepared and used in washtests and subsequent sensory evaluation of the washed and dried fabric as described in Example 60a and c. The odour intensity was recorded on an intensity scale of 0 (odourless) to 5 (extremely strong).

[2] = as above; conditions: Table 2; dry fabric 3 days; scale 0 to 5
[3] = Odour description on paper blotter; conditions: 1% solution in EtOH on paper blotter, 24 h
[4] = Biodegradability, manometric respirometry test (OECD 301F); conditions: pass level 60% oxygen consumption of theory
Source text: The results of the biodegradability assessment by the manometric respirometry test (OECD guideline for the testing of materials No. 301F, Paris 1992) are summarized in Table 6.
A compound can be classified biodegradable, if it reaches the pass level of 60% oxygen consumption of theory required for complete mineralization.
It is readily biodegradable, if the pass level is reached within 10 days within the 28-day period of the test. The 10-day window begins when the degree of biodegradation has reached 10%. If the pass level is obtained after 28-day period of the test, the compound can be classified as inherently biodegradable.

[5] = Application in shampoo base: sensory evaluation of washed hair swatches by expert panel; set-up: species or system human; conditions: Table 4; for odour on dry hair / odour intensity, wet: 0.2% by weight in shampoo base; for odour intensity, wet: wet hair swatch, scale 0 (odourless) to 5 (extremely strong); for odour intensity, 1 day: dried hair swatch 1 day; for odour intensity, 1 day / odour intensity, 3 days: scale 0 to 5; for odour intensity, 3 days: dried hair swatch 3 days
Description: Odour-neutral human hair swatches were wetted with warm tap water and lathered delicately with 2 mL of the above hair shampoo samples for 30 sec by hand wearing gloves. The lathered hair swatches were left in a plastic bowl for 2 min, then rinsed under running tap water for 20 sec. After removing excess water by squeezing the hair swatches between two fingers, they were left to dry in open air. The wet and dried hair swatches (1 and 3 days) were assessed by a panel of 4-6 experts with regard to odour intensity and quality. The odour intensity was recorded on an intensity scale of 0 (odourless) to 5 (extremely strong).

[6] = Colour stability in liquid detergent base (visual inspection); format: physicochemical; conditions: 0.2% by weight in unperfumed liquid detergent base, compared to unperfumed base
Source text: The above prepared samples were visually inspected in comparison to an unperfumed base sample (sample C).

[7] = Table 2, dry fabric 1 day, scale 0 to 5
[8] = Table 2, liquid detergent washtest
[9] = Table 2, liquid detergent washtest, wet fabric, scale 0 (odorless) to 5 (extremely strong)
[10] = Table 3, dry fabric 1 day, scale 0 to 5
[11] = Table 3, dry fabric 4 days, scale 0 to 5
[12] = Table 3, heavy duty liquid detergent washtest, wet fabric, scale 0 to 5

Compound | Odour description [3] | Biodegradation in % [4] [%] | odour intensity, 1 day [1, 10] | odour intensity, 4 days [1, 11] | odour intensity, wet [1, 12] | odour intensity, wet [5] | odour intensity, 1 day [5] | odour intensity, 3 days [5] | also measured
CC/C=C\C/C=C\COc1ccc(C=O)cc1OCC [3-ethoxy-4-(((2Z,5Z)-octa-2,5-dien-1-yl)oxy)benzaldehyde, reference compound] |  |  |  |  |  |  |  |  | odour intensity, 1 day [1, 7]: 2.8; odour on dry fabric [1, 8]: metallic; odour intensity, wet [1, 9]: 0.9; odour released on dry fabric [1]: weak and unpleasant odours; odour intensity, 3 days [2]: 2.3
CC/C=C\CCC(CCCCCCCCC)Oc1ccc(C=O)cc1OCC (stereo not shown) [(Z)-3-ethoxy-4-(hexadec-3-en-7-yloxy)benzaldehyde, reference compound] |  |  |  |  |  |  |  |  | odour intensity, 1 day [1, 7]: 1.2; odour on dry fabric [1, 8]: rubbery, metallic; odour intensity, wet [1, 9]: 1.1; odour released on dry fabric [1]: weak and unpleasant odours; odour intensity, 3 days [2]: 1.6
CCCCCC[C@@H](C/C=C\CCCCCCCC(=O)OC)Oc1ccc(C=O)cc1OCC [Example 1, methyl (S,Z)-12-(2-ethoxy-4-formylphenoxy)octadec-9-enoate] | powdery, vanillin, green, fatty | 90 |  |  |  |  |  |  | 
CCCCCC[C@@H](C/C=C\CCCCCCCC(=O)OC)Oc1ccc(CCC(C)=O)cc1 [Example 2, methyl (S,Z)-12-(4-(3-oxobutyl)phenoxy)octadec-9-enoate] | powdery fruity raspberry, green, fatty | 88 |  |  |  |  |  |  | 
CC/C=C\CC(CCCCC)Oc1ccc(C=O)cc1OCC (stereo not shown) [Example 17, (Z)-3-ethoxy-4-(undec-3-en-6-yloxy)benzaldehyde] | powdery (dry, vanilla, chocolate) | 86 |  |  |  |  |  |  | 
CC/C=C\CC(CCCCCCCCC)Oc1ccc(C=O)cc1OCC (stereo not shown) [Example 28, (Z)-3-ethoxy-4-(Pentadec-3-en-6-yloxy)benzaldehyde] | powdery, creamy, vanilla, aldehydic, mandarin |  | 2.3 | 2.6 | 2.1 | 1.7 | 3.5 | 4.4 | odour intensity, 1 day ([1]; Table 1, line-dried fabric 1 day, scale 0 to 5): 2.3; odour intensity, 4 days ([1]; Table 1, line-dried fabric 4 days, scale 0 to 5): 2.6; odour intensity, wet ([1]; Table 1, liquid detergent 0.2% by weight, 40° C. machine wash, cotton/elastan fabric, wet, scale 0 (odourless) to 5 (extremely strong)): 2.1; odour released from washed fabric ([1]; liquid detergent washtest, dry fabric): mandarin, vanilla and powdery fragrance; odour on dry hair [5]: mandarin, vanilla; Colour of liquid detergent sample (visual inspection) [6]: optically identical to the unperfumed base
CC/C=C/CC(CCCCCCCCC)Oc1ccc(C=O)cc1OCC (stereo not shown) [Example 29, (E)-3-ethoxy-4-(pentadec-3-en-6-yloxy)benzaldehyde] | powdery, creamy, vanilla, aldehydic, mandarin | 70 |  |  |  |  |  |  | 
CC/C=C\C/C=C\CCOc1ccc(C=O)cc1OCC [Example 30, 3-ethoxy-4-(((3Z,6Z)-nona-3,6-dien-1-yl)oxy)benzaldehyde] | green, leaf aldehyde, green apple, powdery, vanilla |  | 3.4 | 4.1 | 2.7 |  |  |  | odour intensity, 1 day [1, 7]: 3.4; odour on dry fabric [1, 8]: vanilla, green; odour intensity, wet [1, 9]: 2.7; odour released on dry fabric [1]: strong and pleasant odour; odour intensity, 3 days [2]: 4.1
CCCCCC(C)=CCCOc1ccc(C=O)cc1OCC [Example 42, 3-ethoxy-4-((4-methylnon-3-en-1-yl)oxy)benzaldehyde] | powdery, vanilla, sweet, sugary |  | 2.8 | 3.3 | 2.1 | 1.0 | 1.4 | 1.9 | odour on dry hair [5]: vanilla, sweet
CCOc1cc(C=O)ccc1OCCC=C(C)CCc1ccccc1 [Example 47, 3-ethoxy-4-((4-methyl-6-phenylhex-3-en-1-yl)oxy)benzaldehyde] | sweet, vanilla, ice cream, powdery, fruity, raspberry, sorbet |  | 2.7 | 3.0 | 1.5 | 1.4 | 2.7 | 2.1 | 
CCOc1cc(C=O)ccc1OCCC=CC(C)CCC=C(C)C (stereo not shown) [Example 84, 4-((5,9-dimethyldeca-3,8-dien-1-yl)oxy)-3-ethoxybenzaldehyde] | powdery, vanilla, chocolate milk, slightly fresh, fatty, watery, melon |  |  |  |  | 0.7 | 2.7 | 3.6 | 
CCCCCCCCC(C)=CCCOc1ccc(C=O)cc1OCC [Example 90, 3-ethoxy-4-((4-methyldodec-3-en-1-yl)oxy)benzaldehyde] | powdery, vanilla, creamy, slightly green, sesame seed, sharp, technical |  |  |  |  | 1.1 | 2.7 | 2.9 | 
CCOc1cc(C=O)ccc1O [ethylvanillin, 3-ethoxy-4-hydroxybenzaldehyde] |  |  |  |  |  |  |  |  | Colour of liquid detergent sample (visual inspection) [6]: strong purple coloration; also recorded: colors the base
